Source: patent US12545637B2, “Extrahepatic targeted cationic lipid compound with high efficiency and low toxicity and its composition” (BEIJING YOUCARE KECHUANG PHARMACEUTICAL TECHNOLOGY CO., LTD., priority 2023, dated 2026)

Assays:
[1] = Detection of encapsulation efficiency, drug loading concentration and total RNA concentration (RiboGreen); type: physicochemical; conditions: for Drug loading concentration / Encapsulation efficiency / Total RNA concentration: LNP formulation prepared from the cationic lipid; for encapsulation efficiency higher than ALC-0315: difference vs ALC-0315; for encapsulation efficiency higher than HIMA: difference vs HIMA (HHMA); for encapsulation efficiency higher than SM-102: difference vs SM-102; for encapsulation efficiency higher than YK-009: difference vs YK-009; for encapsulation efficiency higher than compound 21: difference vs compound 21; for encapsulation efficiency higher than compound 23: difference vs compound 23; for drug loading concentration, times that of ALC-0315 / total RNA concentration, times that of ALC-0315: ratio vs ALC-0315; for drug loading concentration, times that of HIMA / total RNA concentration, times that of HIMA: ratio vs HIMA (HHMA); for drug loading concentration, times that of SM-102 / total RNA concentration, times that of SM-102: ratio vs SM-102; for drug loading concentration, times that of YK-009 / total RNA concentration, times that of YK-009: ratio vs YK-009; for drug loading concentration, times that of compound 21 / total RNA concentration, times that of compound 21: ratio vs compound 21; for drug loading concentration, times that of compound 23 / total RNA concentration, times that of compound 23: ratio vs compound 23
Method in brief: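 LNP samples were diluted in 1×TE to approximately […], then mixed with 1×TE and 0.1% Triton X-100 buffers. After 10 minutes at 37 °C, RiboGreen (1:200) was added and fluorescence read against an mRNA standard, giving encapsulation efficiency, drug loading concentration and total RNA concentration.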

[2] = system: 293T cells; assay: Cell survival rate assay (CCK-8); type: cell-based; conditions: for Cell survival rate: LNP with 1.5 μg Fluc-mRNA, 24 hours, CCK-8; for cell survival rate higher than ALC-0315: difference vs ALC-0315; for cell survival rate higher than HIMA: difference vs HIMA (HHMA); for cell survival rate higher than Lipofectamine 3000: difference vs Lipofectamine 3000; for cell survival rate higher than SM-102: difference vs SM-102; for cell survival rate higher than YK-404: difference vs YK-404; for cell survival rate higher than YK-405: difference vs YK-405; for cell survival rate higher than YK-406: difference vs YK-406; for cell survival rate higher than YK-408: difference vs YK-408; for cell survival rate higher than YK-409: difference vs YK-409; for cell survival rate higher than YK-410: difference vs YK-410; for cell survival rate higher than YK-411: difference vs YK-411; for cell survival rate higher than YK-412: difference vs YK-412; for cell survival rate higher than YK-413: difference vs YK-413; for cell survival rate higher than YK-414: difference vs YK-414; for cell survival rate higher than YK-415: difference vs YK-415; for cell survival rate higher than YK-416: difference vs YK-416; for cell survival rate higher than YK-417: difference vs YK-417; for cell survival rate higher than YK-418: difference vs YK-418; for cell survival rate higher than YK-419: difference vs YK-419; for cell survival rate higher than YK-420: difference vs YK-420; for cell survival rate higher than YK-421: difference vs YK-421; for cell survival rate higher than YK-424: difference vs YK-424; for cell survival rate higher than compound 21: difference vs compound 21; for cell survival rate higher than compound 23: difference vs compound 23; for cytotoxicity reduced compared with YK-411: rounded summary statement vs YK-411
Method in brief: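 293T cells seeded at 10,000 cells/well, cultured overnight, then exposed 24 h to LNP carrying 1.5 μg Fluc-mRNA (cationic:neutral:structured:PEG-type lipid 49:10:39.5:1.5) or Lipofectamine 3000. Viability read by CCK-8, 1 h incubation, absorbance at 450 nm.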

Structure (SMILES): CCCCCCCCC(CCCCCCCC)OC(=O)CCCCCCCN(CCO)CCN(CCO)CCCCCCCC(=O)OC(CCCCCCCC)CCCCCCCC [YK-403, di(heptadecan-9-yl) 8, 8′-(ethane-1,2-diyl-bis((2-hydroxyethyl)azanediyl))dioctanoate]
- Drug loading concentration [1]: 34.21 µg/mL
- Encapsulation efficiency [1]: 87.9%
- Total RNA concentration [1]: 40.53 µg/mL
- encapsulation efficiency higher than ALC-0315 [1]: 24.6%
- encapsulation efficiency higher than HIMA [1]: 27.7%
- encapsulation efficiency higher than SM-102 [1]: 25.0%
- encapsulation efficiency higher than YK-009 [1]: 24.4%
- encapsulation efficiency higher than compound 21 [1]: 29.9%
- encapsulation efficiency higher than compound 23 [1]: 31.7%
- drug loading concentration, times that of ALC-0315 [1]: 1.27
- total RNA concentration, times that of ALC-0315 [1]: 1.07
- drug loading concentration, times that of HIMA [1]: 1.05
- total RNA concentration, times that of HIMA [1]: 1.11
- drug loading concentration, times that of SM-102 [1]: 1.29
- total RNA concentration, times that of SM-102 [1]: 1.12
- drug loading concentration, times that of YK-009 [1]: 1.24
- total RNA concentration, times that of YK-009 [1]: 1.05
- drug loading concentration, times that of compound 21 [1]: 1.56
- total RNA concentration, times that of compound 21 [1]: 1.40
- drug loading concentration, times that of compound 23 [1]: 1.71
- total RNA concentration, times that of compound 23 [1]: 1.31
- Cell survival rate [2]: 70.76%
- cell survival rate higher than ALC-0315 [2]: 23.55%
- cell survival rate higher than HIMA [2]: 6.49%
- cell survival rate higher than Lipofectamine 3000 [2]: 49.10%
- cell survival rate higher than SM-102 [2]: 2.86%
- cell survival rate higher than YK-404 [2]: 28.64%
- cell survival rate higher than YK-405 [2]: 28.90%
- cell survival rate higher than YK-406 [2]: 45.80%
- cell survival rate higher than YK-408 [2]: 28.45%
- cell survival rate higher than YK-409 [2]: 24.65%
- cell survival rate higher than YK-410 [2]: 25.84%
- cell survival rate higher than YK-411 [2]: 54.43%
- cell survival rate higher than YK-412 [2]: 16.62%
- cell survival rate higher than YK-413 [2]: 23.56%
- cell survival rate higher than YK-414 [2]: 42.01%
- cell survival rate higher than YK-415 [2]: 9.60%
- cell survival rate higher than YK-416 [2]: 29.79%
- cell survival rate higher than YK-417 [2]: 49.42%
- cell survival rate higher than YK-418 [2]: 49.71%
- cell survival rate higher than YK-419 [2]: 31.84%
- cell survival rate higher than YK-420 [2]: 35.17%
- cell survival rate higher than YK-421 [2]: 35.05%
- cell survival rate higher than YK-424 [2]: 42.83%
- cell survival rate higher than compound 21 [2]: 2.92%
- cell survival rate higher than compound 23 [2]: 1.65%
- cytotoxicity reduced compared with YK-411 [2]: 50%

Structure (SMILES): CCCCCCCCC(CCCCCCCC)COC(=O)CCCCCN(CCCO)CCN(CCCO)CCCCCC(=O)OCC(CCCCCCCC)CCCCCCCC [YK-422, di(2-octyldecyl) 6,6′-(ethane-1,2-diyl-bis((3-hydroxypropyl)azanediyl))dihexanoate]
- Drug loading concentration [1]: 45.05 µg/mL
- Encapsulation efficiency [1]: 92.4%
- Total RNA concentration [1]: 45.76 µg/mL
- encapsulation efficiency higher than ALC-0315 [1]: 29.1%
- encapsulation efficiency higher than HIMA [1]: 32.2%
- encapsulation efficiency higher than SM-102 [1]: 29.5%
- encapsulation efficiency higher than YK-009 [1]: 29.0%
- encapsulation efficiency higher than compound 21 [1]: 34.4%
- encapsulation efficiency higher than compound 23 [1]: 36.2%
- drug loading concentration, times that of ALC-0315 [1]: 1.68
- total RNA concentration, times that of ALC-0315 [1]: 1.21
- drug loading concentration, times that of HIMA [1]: 1.38
- total RNA concentration, times that of HIMA [1]: 1.26
- drug loading concentration, times that of SM-102 [1]: 1.70
- total RNA concentration, times that of SM-102 [1]: 1.27
- drug loading concentration, times that of YK-009 [1]: 1.64
- total RNA concentration, times that of YK-009 [1]: 1.19
- drug loading concentration, times that of compound 21 [1]: 2.05
- total RNA concentration, times that of compound 21 [1]: 1.58
- drug loading concentration, times that of compound 23 [1]: 2.25
- total RNA concentration, times that of compound 23 [1]: 1.47
- Cell survival rate [2]: 70.48%
- cell survival rate higher than ALC-0315 [2]: 23.27%
- cell survival rate higher than HIMA [2]: 6.21%
- cell survival rate higher than Lipofectamine 3000 [2]: 48.82%
- cell survival rate higher than SM-102 [2]: 2.58%
- cell survival rate higher than YK-404 [2]: 28.36%
- cell survival rate higher than YK-405 [2]: 28.62%
- cell survival rate higher than YK-406 [2]: 45.52%
- cell survival rate higher than YK-408 [2]: 28.17%
- cell survival rate higher than YK-409 [2]: 24.37%
- cell survival rate higher than YK-410 [2]: 25.56%
- cell survival rate higher than YK-411 [2]: 54.15%
- cell survival rate higher than YK-412 [2]: 16.34%
- cell survival rate higher than YK-413 [2]: 23.28%
- cell survival rate higher than YK-414 [2]: 41.73%
- cell survival rate higher than YK-415 [2]: 9.32%
- cell survival rate higher than YK-416 [2]: 29.51%
- cell survival rate higher than YK-417 [2]: 49.14%
- cell survival rate higher than YK-418 [2]: 49.43%
- cell survival rate higher than YK-419 [2]: 31.56%
- cell survival rate higher than YK-420 [2]: 34.89%
- cell survival rate higher than YK-421 [2]: 34.77%
- cell survival rate higher than YK-424 [2]: 42.55%
- cell survival rate higher than compound 21 [2]: 2.64%
- cell survival rate higher than compound 23 [2]: 1.37%
- cytotoxicity reduced compared with YK-411 [2]: 50%
